The values below come from patent US20090291971A1, “HETEROARYL ETHERS AND PROCESSES FOR THEIR PREPARATION” (Wyeth, priority 2007, published 2009).

Holding throughout (format): biochemical
One assay concerns the target PI3K gamma (Homo sapiens, UniProt P48736). Nature of the assay: PI3 Kinase Assay (PI3K gamma). The following applies: 1 h. Here is the method: (§1) PI3-Kinase reactions were performed in […], pH 7, […], and 25 μM ATP, with diC8-PI(4,5)P2 (Echelon, Salt Lake City Utah) as substrate. Nunc 384 well black polypropylene fluorescent plates were used for PI3K assays. Reactions were quenched by the addition of EDTA to a final concentration of […]. Final reaction volumes were […]. For evaluation of PI 3-K inhibitors, 5 ng of enzyme and 2.5 μM of substrate was used per […] reaction volume, and inhibitor concentrations ranged from 100 μM to […]; the final level of DMSO in reactions never exceeded 2%. Reactions were allowed to proceed for one hour at 25° C. After 1 hour, GST-tagged GRP1 (general receptor for phosphoinositides) PH domain fusion protein was added to a final concentration of 100 nM, and BODIPY-TMRI(1,3,4,5)P4 (Echelon) was also added to a final concentration of 5 nM. Final sample volumes were 25 μl with a final DMSO concentration of 0.8%. Assay Plates were read on Perkin-Elmer Envision plate readers with appropriate filters for Tamra [BODIPY-TMRI(1,3,4,5)P4]. Data obtained were used to calculate enzymatic activity and enzyme inhibition by inhibitor compounds.

The target in a further assay is T1, Flag-IKKβ (Homo sapiens, UniProt O14920).
T1 construct: made in house; host or cells: SF9 insect cells (baculovirus)
T1 sequence (O14920 1-756): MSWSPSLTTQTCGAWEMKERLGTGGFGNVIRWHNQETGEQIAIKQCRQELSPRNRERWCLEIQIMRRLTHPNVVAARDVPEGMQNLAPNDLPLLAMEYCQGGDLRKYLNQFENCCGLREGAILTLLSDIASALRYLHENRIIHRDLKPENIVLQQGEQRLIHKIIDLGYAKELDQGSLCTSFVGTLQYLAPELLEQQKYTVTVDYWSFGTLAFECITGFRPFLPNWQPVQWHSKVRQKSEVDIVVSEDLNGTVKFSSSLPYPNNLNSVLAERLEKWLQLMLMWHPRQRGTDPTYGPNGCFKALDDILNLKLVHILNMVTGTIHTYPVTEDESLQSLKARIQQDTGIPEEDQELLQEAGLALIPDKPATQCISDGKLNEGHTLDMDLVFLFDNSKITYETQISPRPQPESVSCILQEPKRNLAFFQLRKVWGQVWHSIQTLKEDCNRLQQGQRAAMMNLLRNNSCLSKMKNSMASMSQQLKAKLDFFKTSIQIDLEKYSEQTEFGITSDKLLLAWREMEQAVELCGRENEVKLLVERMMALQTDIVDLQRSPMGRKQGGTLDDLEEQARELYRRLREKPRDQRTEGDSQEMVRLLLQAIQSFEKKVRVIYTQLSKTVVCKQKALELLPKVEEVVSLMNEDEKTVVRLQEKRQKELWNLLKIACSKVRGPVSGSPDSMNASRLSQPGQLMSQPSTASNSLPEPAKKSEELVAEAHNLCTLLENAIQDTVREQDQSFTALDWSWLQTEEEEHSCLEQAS
Nature of the assay: IKK Kinase Assay (LANCE). From the text:
Human IKKβ cDNA is amplified by reverse transcriptase-polymerase chain reaction from human placental RNA (CLONTECH) using primers that incorporated the FLAG-epitope at the C terminus of IKKβ. FLAG-IKKβ is inserted into the baculovirus expression plasmid pFASTBAC (Life Technologies). Following the manufacturer's protocol for the BAC-TO-BAC (Life Technologies) Baculovirus Expression System, recombinant baculoviruses expressing the IKKβ enzyme are made. Briefly, 9×10^5 SF9 cells per well of a 6-well plate are transfected with one μg of miniprep bacmid DNA using the CellFECTIN™ reagent. Virus is harvested 72 hours post transfection, and a viral titer is performed, after which a high titer viral stock (2×10^8 pfu/ml) is amplified by three to four rounds of infection. […]
Purified Flag-IKKβ enzyme (2 nM final concentration) is typically used in the kinase reaction buffer described above supplemented with 0.0025% Brij solution (Sigma) to help stabilize the enzyme. […] 25 μL of 20 mM EDTA is added to terminate the reactions and then 100 μL of detection mixture [0.25 nM Europium labeled anti-phospho-IκBα (prepared by Wallac) and 0.25 μg/mL final concentration streptavidin-APC, Wallac] is added 30 minutes before reading the plates in a Wallac VICTOR plate reader. […]

The target of a further assay is PI3K alpha (Homo sapiens, UniProt P42336). Nature of the assay: PI3 Kinase Assay (PI3K alpha). As to the method:
as §1

The target of assay [1] is T2, human PKCθ full length enzyme (Homo sapiens, UniProt Q04759).
T2 construct: human PKCθ full length enzyme; purchased Panvera P2996
Nature of the assay: PKC Theta IMAP Assay. Here is the method: The materials used include the following: human PKCθ full length enzyme (Panvera Cat#P2996); substrate peptide: 5FAM-RFARKGSLRQKNV-OH (Molecular Devices, RP7032); ATP (Sigma Cat #A2383); DTT (Pierce, 20291); 5× kinase reaction buffer (Molecular Devices, R7209); 5× binding buffer A (Molecular Devices, R7282), 5× binding buffer B (Molecular Devices, R7209); IMAP Beads (Molecular Devices, R7284); and 384-well plates (Corning Costar, 3710).
The reaction buffer was prepared by diluting the 5× stock reaction buffer and adding DTT to obtain a concentration of 3.0 mM. The binding buffer was prepared by diluting the 5× binding buffer A. A master mix solution was prepared using a 90% dilution of the reaction buffer containing 2×ATP (12 uM) and 2× peptide (200 nm). Compounds were diluted in DMSO to 20× of the maximum concentration for the IC50 measurement. 27 μl of the master mix solution for each IC50 curve was added to the first column in a 384-well plate and 3 μl of 20× compound in DMSO was added to each well. The final concentration of compound was 2× and 10% DMSO. DMSO was added to the rest of the master mix to increase the concentration to 10%. 10 μl of the master mix containing 10% DMSO was added to the rest of the wells on the plate except the 2nd column. 20 μl was transferred from the first column to the 2nd column. […] FP was measured using Envision2100 (PerkinElmer Life Sciences). […]

T2 sequence (Q04759 whole entry): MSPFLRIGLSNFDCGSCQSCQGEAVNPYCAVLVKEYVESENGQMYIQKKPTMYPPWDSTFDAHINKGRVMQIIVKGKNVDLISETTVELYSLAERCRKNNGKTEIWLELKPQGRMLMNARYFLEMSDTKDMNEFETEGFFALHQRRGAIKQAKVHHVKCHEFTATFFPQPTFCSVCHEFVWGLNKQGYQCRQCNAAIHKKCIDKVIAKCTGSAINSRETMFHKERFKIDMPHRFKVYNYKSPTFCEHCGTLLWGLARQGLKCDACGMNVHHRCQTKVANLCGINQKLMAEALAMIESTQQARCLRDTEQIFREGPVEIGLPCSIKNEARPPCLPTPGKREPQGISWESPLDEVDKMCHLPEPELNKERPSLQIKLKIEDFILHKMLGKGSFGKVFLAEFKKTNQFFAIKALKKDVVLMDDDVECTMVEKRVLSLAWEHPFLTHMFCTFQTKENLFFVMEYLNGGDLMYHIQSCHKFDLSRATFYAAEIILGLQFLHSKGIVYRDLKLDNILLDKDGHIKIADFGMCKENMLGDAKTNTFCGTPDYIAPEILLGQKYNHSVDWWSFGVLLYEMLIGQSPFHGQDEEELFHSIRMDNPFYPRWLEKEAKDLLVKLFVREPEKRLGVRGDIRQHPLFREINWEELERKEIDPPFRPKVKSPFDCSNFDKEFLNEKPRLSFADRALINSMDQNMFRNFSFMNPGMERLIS
Chain of PI3K gamma (P48736 whole entry, species assumed, the tested form may be a part): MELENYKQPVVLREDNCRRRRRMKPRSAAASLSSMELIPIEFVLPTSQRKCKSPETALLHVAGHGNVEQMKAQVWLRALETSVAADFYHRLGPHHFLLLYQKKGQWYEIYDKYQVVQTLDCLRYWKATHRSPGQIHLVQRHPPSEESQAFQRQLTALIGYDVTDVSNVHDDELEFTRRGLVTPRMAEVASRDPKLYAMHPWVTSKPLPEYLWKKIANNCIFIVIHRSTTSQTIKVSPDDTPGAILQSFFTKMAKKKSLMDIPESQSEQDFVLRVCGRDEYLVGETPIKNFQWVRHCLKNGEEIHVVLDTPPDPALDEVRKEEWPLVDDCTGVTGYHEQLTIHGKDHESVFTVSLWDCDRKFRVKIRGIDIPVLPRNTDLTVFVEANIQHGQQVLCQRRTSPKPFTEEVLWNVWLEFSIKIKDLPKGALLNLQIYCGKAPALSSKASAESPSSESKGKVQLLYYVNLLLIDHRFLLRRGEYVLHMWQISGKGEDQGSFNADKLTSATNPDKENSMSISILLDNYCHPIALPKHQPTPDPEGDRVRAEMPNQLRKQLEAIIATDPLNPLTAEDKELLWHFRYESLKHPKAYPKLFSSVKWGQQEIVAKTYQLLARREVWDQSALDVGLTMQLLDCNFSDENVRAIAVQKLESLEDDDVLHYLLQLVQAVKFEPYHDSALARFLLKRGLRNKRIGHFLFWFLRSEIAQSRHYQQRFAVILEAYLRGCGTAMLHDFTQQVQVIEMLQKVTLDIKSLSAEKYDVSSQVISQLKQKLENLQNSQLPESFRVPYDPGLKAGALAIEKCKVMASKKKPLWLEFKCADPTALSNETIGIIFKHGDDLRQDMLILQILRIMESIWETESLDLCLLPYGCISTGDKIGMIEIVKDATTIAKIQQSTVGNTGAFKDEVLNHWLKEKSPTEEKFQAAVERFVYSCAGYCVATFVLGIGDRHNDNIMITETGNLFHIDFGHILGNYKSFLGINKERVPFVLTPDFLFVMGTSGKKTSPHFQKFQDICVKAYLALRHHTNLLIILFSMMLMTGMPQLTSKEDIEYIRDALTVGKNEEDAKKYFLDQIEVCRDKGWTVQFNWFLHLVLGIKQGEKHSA
Chain of PI3K alpha (P42336 whole entry, species assumed): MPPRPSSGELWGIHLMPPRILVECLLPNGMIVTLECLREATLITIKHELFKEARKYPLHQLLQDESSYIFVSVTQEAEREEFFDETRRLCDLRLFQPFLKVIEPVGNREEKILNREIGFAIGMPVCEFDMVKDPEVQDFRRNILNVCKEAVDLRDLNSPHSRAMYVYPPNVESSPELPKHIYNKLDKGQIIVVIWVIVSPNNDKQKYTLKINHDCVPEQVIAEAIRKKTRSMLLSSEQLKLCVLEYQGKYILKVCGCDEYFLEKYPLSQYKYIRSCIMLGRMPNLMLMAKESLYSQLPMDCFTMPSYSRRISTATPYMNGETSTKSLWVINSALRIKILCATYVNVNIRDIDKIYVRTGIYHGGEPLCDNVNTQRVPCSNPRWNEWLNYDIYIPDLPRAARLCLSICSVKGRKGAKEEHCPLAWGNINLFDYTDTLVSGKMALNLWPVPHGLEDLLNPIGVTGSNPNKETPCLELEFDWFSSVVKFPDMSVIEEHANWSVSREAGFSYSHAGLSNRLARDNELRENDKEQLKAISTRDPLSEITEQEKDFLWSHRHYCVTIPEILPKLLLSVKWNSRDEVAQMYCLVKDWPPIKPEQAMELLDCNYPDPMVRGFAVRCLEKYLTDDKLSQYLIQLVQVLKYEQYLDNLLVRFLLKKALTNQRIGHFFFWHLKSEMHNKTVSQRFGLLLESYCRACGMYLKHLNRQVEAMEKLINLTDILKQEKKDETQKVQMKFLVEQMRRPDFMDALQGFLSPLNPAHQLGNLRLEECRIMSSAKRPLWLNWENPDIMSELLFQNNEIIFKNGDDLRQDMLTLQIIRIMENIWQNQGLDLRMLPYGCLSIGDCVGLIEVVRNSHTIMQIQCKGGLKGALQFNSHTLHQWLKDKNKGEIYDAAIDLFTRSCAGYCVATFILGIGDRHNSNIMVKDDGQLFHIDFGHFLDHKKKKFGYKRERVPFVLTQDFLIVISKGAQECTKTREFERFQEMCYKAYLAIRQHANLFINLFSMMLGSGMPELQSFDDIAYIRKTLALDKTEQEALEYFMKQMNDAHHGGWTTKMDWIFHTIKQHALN
Chain of PI3K alpha (P27986 whole entry partner, species assumed): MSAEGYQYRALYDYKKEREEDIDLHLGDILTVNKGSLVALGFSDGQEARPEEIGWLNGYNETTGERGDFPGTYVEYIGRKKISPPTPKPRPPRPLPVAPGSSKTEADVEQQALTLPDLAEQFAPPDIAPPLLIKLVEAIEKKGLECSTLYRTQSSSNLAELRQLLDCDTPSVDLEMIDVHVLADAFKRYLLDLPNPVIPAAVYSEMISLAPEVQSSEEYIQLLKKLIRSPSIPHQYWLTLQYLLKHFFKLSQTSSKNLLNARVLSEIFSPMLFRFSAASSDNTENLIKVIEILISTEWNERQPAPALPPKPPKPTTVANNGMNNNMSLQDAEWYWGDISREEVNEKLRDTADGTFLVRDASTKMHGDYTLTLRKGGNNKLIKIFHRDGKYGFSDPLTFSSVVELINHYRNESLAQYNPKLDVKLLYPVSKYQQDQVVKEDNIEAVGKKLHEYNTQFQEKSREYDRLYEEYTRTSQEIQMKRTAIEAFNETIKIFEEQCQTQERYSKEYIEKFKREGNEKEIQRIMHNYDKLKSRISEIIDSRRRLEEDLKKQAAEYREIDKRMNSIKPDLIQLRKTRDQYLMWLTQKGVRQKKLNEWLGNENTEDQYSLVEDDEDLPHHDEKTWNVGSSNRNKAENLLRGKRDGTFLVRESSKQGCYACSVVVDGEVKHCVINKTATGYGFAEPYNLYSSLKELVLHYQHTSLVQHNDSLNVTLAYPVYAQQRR

As a reminder, the inhibition is the percentage by which the read-out fell short of the control. Lower therefore signals a weak effect. What is called IC50 is the concentration that gives 50% inhibition. With `Cc1noc(C)c1Oc1ncnc2ccccc12` [Example 26, 3,5-Dimethyl-4-(quinazolin-4-yloxy)isoxazole], the figures for the inhibition at 30 µM at PI3K gamma, on Flag-IKKβ and at PI3K alpha were 12%, 51% and 56%, respectively. In assay [1], this molecule returned an IC50 of 25.9 µM.
